Key:
[1] = test system: Plasmopara viticola; experiment: Tests against Plasmopara viticola on grapes, dust application before inoculation; format: in vivo, Plasmopara viticola on Chasselas grapes; details: for % leaf surface with symptoms of infection: average +/- standard deviation; for effect on Plasmopara viticola infection, in words: grapes, dust application, positive control Kocide Opti 0.003%
Description: Tests Against Plasmopara Viticola on Grapes The above-describe samples were tested in an independent plant research institute. The tests were set up as blind tests parallel to the following controls presented below. Study Design: […] For inoculation, the abaxial side of the fully developed leaves of Plasmopara viticola (50,000 spores/mL) were sprayed, and the entire plant was inoculated. Two types of all of the tests were performed: […] Dust application on the dry test plant before inoculation with the pathogen (so-called standard method) […] Dust application on a wet test plant before inoculation with the pathogen. […] Portion of infected leaf surface in percent of the overall leaf surface. The combined “efficacy severity” was then calculated from this in percent. Controls: […]

[2] = known compounds with very high capacity; cited from earlier work
[3] = Type 1 (dry), study of examples 1 and 2
[4] = Type 2 (wet), study of examples 1 and 2
[5] = Type 1 (dry), study of examples 3 and 4
[6] = Type 2 (wet), study of examples 3 and 4

For `[Ca+2].[OH-].[OH-]` [Example 2, Calcium hydroxide], the “% leaf surface with symptoms of infection” value (from here on “% leaf surface with symptoms”) ([1]; Type 1 (dry) dust application on dry plant, study of examples 1 and 2) was 50 +/− 22%, the “% infected leaves” value [1, 3] was 89 +/− 17% and the Efficacy severity [1, 3] was 46.8%. For the same compound, the “% leaf surface with symptoms” value ([1]; Type 2 (wet) dust application on wet plant, study of examples 1 and 2) was 59 +/− 22%, the “% infected leaves” value [1, 4] was 93 +/− 10% and the Efficacy severity [1, 4] was 36.4%. The “effect on Plasmopara viticola infection, in words” value [1] was “only a slight reduction of the infection”.

For `O=C([O-])[O-].[Li+].[Li+]` [Li2CO3], the “acid neutralization capacity bH+” value [2] is given as 27 mol/kg.

In the case of `N` [NH3], the “acid neutralization capacity bH+” value [2] is given as 59 mol/kg.

For `[Na+].[OH-]` [NaOH], the “acid neutralization capacity bH+” value [2] is given as 25 mol/kg.

With Calcium stearate [Example 4] the Efficacy severity [1, 5] was 7.3%, the “% leaf surface with symptoms” value [1, 5] was 62 +/− 20% and the “% infected leaves” value ([1]; Type 1 (wet) as printed, study of examples 3 and 4) was 93 +/− 10%. For the same compound, the “% infected leaves” value [1, 6] was 91 +/− 10%, the Efficacy severity [1, 6] was 13.3% and the “% leaf surface with symptoms” value [1, 6] was 58 +/− 8%. For the same compound, the “effect on Plasmopara viticola infection, in words” value [1] was “inactive”.

Source: patent US20230077290A1, “HEAVY METAL-FREE CALCIUM HYDROXIDE-BASED ACTIVE SUBSTANCE” (KALKFABRIK NETSTAL AG, priority 2016, published 2023)
